Values quoted from earlier work as cited in patent publication US5843995A, “Inhibition of HIV-1 replication using oligocarbamate derivatives” (University of Medicine and Dentistry of New Jersey, priority 1997, dated 1998).

System: HIV-1
Conditions: cells pretreated with peptide 24 hours prior to infection

## CC(=O)N[C@H](CCCNC(=N)N)C(=O)N[C@H](CCCNC(=N)N)C(=O)N[C@H](CCCNC(=N)N)C(=O)N[C@H](CCCNC(=N)N)C(=O)N[C@H](CCCNC(=N)N)C(=O)N[C@H](CCCNC(=N)N)C(=O)N[C@H](CCCNC(=N)N)C(=O)N[C@H](CCCNC(=N)N)C(=O)N[C@H](CCCNC(=N)N)C(N)=O [N-acetyl-(DArg)9 -NH2]
  mechanism of antiviral activity: via inhibition of viral entry
